In patent US20090304692A1, “TRIAZINE COMPOUNDS AS PI3 KINASE AND MTOR INHIBITORS” (Wyeth, priority 2008, published 2009):
Several values for one entry are separate records, joined by “and”; a condition that tells them apart may be missing. Equal entries are not always repeated. Where two headings read alike, the source gives them in different places.

Legend:
PI3K-α = PI3K-α (Homo sapiens, UniProt P42336); assay: PI3K-alpha fluorescence polarization assay; details: read-out: IC50 PI3Kα
[1] = system: human prostate PC3-mm2 tumor cell line; assay: In vitro cell culture growth assay (MTS), PC3-mm2; assay type: cell-based; details: Homo sapiens, PC3MM2, 72 h, MTS cell growth assay, three days after drug treatment, read-out: IC50 PC3-mm2
PI3K-γ = PI3K-γ (Homo sapiens, UniProt P48736); assay: PI3K-gamma fluorescence polarization assay; details: read-out: IC50 PI3Kγ
[2] = system: human breast MDA-MB-361 tumor cell line; assay: In vitro cell culture growth assay (MTS), MDA-MB-361; assay type: cell-based; details: Homo sapiens, MDA-MB-361, 72 h, MTS cell growth assay, three days after drug treatment, read-out: IC50 MDA-MB-361
Human mTOR (FLAG-TOR) = Human mTOR (FLAG-TOR) (Homo sapiens, UniProt P42345); assay: mTOR kinase assay (DELFIA format, purified enzyme); assay type: biochemical; details: read-out: IC50 mTOR
Sequence of Human mTOR (FLAG-TOR) (P42345 1360-2549 limits assumed): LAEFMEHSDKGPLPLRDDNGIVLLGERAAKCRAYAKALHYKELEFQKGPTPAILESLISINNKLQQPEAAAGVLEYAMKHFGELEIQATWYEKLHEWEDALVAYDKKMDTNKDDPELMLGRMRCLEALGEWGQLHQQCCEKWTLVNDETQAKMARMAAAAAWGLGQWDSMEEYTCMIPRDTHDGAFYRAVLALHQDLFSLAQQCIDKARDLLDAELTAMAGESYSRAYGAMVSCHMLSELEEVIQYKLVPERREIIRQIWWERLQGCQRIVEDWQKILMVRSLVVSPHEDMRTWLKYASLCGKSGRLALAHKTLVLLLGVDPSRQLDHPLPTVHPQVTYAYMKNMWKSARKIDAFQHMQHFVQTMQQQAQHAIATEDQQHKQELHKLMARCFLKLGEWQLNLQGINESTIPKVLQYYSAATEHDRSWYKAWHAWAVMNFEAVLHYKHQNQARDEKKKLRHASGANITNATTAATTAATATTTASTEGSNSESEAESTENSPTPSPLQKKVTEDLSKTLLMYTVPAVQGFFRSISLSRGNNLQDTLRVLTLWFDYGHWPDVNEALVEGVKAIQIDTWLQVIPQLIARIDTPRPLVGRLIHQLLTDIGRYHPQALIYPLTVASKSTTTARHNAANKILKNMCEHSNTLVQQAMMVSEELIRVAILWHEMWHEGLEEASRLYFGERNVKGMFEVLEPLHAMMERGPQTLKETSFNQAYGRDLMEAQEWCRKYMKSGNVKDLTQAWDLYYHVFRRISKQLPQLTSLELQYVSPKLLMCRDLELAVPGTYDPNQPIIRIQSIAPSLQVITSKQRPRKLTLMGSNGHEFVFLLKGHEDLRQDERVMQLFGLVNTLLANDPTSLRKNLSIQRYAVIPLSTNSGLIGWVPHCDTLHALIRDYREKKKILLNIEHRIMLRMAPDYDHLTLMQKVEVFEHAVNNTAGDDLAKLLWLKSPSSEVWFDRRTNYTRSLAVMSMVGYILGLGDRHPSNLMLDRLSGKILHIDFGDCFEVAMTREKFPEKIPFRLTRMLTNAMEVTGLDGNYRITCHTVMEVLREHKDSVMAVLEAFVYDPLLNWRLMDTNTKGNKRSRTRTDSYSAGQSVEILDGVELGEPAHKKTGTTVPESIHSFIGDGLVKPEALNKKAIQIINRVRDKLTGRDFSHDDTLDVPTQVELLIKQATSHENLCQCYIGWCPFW

Sequence of PI3K-γ (P48736 whole entry, species assumed): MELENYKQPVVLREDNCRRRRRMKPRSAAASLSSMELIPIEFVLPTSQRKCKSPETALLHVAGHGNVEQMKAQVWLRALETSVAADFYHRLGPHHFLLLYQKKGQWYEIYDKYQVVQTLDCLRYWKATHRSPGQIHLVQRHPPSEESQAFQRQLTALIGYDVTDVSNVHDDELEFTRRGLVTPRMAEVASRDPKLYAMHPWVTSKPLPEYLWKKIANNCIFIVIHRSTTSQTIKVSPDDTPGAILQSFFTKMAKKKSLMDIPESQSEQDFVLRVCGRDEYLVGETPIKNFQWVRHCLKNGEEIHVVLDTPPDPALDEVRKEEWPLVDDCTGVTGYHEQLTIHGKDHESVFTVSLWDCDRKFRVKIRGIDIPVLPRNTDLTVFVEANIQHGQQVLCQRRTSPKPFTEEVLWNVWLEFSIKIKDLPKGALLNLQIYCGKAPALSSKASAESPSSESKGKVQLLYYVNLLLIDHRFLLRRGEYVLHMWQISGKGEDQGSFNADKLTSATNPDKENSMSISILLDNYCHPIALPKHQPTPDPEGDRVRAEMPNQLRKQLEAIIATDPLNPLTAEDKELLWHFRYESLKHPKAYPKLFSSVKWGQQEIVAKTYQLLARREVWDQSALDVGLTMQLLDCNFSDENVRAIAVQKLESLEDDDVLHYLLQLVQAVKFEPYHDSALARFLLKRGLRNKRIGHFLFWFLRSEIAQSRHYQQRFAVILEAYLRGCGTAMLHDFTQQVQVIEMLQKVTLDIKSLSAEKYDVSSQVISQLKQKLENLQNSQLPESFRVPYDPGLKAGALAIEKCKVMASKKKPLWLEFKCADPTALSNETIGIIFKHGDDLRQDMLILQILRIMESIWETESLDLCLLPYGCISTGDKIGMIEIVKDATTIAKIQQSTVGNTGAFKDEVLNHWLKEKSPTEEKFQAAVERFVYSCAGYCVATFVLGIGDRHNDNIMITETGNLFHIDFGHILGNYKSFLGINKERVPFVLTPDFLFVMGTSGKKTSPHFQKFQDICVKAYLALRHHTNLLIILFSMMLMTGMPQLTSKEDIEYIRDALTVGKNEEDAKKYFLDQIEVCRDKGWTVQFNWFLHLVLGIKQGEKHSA
Sequence of PI3K-α (P42336 whole entry, species assumed): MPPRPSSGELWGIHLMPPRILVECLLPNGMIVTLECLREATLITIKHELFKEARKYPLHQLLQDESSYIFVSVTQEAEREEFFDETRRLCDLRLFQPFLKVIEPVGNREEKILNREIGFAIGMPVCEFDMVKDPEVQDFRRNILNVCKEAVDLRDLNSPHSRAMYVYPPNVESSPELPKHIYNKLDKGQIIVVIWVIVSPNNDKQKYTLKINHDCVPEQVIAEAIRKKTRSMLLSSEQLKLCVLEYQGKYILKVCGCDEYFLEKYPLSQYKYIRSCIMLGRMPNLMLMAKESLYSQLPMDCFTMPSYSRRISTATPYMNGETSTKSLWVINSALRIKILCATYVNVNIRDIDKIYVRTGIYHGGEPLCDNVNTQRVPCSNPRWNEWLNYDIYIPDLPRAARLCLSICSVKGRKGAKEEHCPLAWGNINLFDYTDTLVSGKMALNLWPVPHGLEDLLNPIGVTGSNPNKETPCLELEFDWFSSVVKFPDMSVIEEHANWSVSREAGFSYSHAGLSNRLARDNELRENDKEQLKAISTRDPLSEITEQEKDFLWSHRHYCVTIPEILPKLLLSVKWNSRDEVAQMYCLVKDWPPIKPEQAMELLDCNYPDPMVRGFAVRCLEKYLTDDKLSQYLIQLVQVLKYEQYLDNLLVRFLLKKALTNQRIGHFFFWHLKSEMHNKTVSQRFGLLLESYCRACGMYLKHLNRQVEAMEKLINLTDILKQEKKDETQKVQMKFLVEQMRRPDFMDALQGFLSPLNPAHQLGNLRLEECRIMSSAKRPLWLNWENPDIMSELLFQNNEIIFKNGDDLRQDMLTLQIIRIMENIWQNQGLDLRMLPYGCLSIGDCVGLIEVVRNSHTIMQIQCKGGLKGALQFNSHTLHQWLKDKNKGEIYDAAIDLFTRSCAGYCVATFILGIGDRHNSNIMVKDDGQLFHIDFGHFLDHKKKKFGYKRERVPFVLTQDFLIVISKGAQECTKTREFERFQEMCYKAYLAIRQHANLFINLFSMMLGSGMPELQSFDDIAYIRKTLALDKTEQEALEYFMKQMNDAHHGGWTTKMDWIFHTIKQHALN
Sequence of PI3K-α (P27986 whole entry partner, species assumed): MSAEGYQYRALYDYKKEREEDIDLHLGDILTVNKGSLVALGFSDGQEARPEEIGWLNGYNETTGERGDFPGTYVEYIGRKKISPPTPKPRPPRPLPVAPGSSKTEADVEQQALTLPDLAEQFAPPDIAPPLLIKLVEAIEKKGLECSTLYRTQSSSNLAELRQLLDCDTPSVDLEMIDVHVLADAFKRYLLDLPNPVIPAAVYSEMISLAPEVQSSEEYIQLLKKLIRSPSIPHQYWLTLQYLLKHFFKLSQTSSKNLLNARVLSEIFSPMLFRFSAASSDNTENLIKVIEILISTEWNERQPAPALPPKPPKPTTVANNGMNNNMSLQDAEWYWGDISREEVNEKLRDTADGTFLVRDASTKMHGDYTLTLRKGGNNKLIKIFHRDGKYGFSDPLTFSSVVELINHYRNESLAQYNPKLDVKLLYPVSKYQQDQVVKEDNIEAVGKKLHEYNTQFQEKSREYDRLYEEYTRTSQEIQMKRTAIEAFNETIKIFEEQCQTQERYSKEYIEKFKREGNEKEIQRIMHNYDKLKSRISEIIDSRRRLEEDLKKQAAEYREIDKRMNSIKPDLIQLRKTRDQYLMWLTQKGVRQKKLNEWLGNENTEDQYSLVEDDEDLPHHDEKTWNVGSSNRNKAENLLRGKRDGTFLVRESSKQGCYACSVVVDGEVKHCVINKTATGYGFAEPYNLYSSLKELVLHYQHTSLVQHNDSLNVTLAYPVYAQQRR

| IC50 (PI3K-α) [nM] | IC50 [1] [nM] | IC50 (PI3K-γ) [nM] | IC50 [2] [nM] | IC50 (Human mTOR (FLAG-TOR)) | IC50 ([1]; PC3-mm2 cells) [nM] | IC50 (PI3K-γ; listed as 533) [nM] | IC50 ([2]; MDA-MB-361 cells) [nM] | IC50 (PI3K-γ; listed as 532) [nM] | IC50 (PI3K-α; listed as 529) [nM] | IC50 (PI3K-γ; listed as 529) [nM] | IC50 (PI3K-α; listed as 527) [nM] | IC50 (PI3K-α; listed as 535) [nM] | IC50 (PI3K-α; listed as 478) [nM] | IC50 (PI3K-γ; listed as 478) [nM] | IC50 (PI3K-γ; listed as 510) [nM] | Compound | IC50 (PI3K-γ; listed as 749) [nM] |
| --- | --- | --- | --- | --- | --- | --- | --- | --- | --- | --- | --- | --- | --- | --- | --- | --- | --- |
| 3 | 53 | 14 | 4 | 2.9 nM |  |  |  |  |  |  |  |  |  |  |  | CC(C)c1nc(-c2ccc(NC(=O)Nc3ccc(C(=O)N4CCC(N(C)C)CC4)cc3)cc2)nc(N2CCOCC2)n1 [Example 308, 1-(4-{[4-(dimethylamino)piperidin-1-yl]carbonyl}phenyl)-3-{4-[4-(1-methylethyl)-6-morpholin-4-yl-1,3,5-triazin-2-yl]phenyl}urea] |  |
| 12 | 109 | 95 | 64 | 3.5 nM |  |  |  |  |  |  |  |  |  |  |  | CC(C)c1nc(-c2ccc(NC(=O)Nc3ccc(C(=O)Nc4ccncc4)cc3)cc2)nc(N2CCOCC2)n1 [Example 309, 4-[({4-[4-(1-methylethyl)-6-morpholin-4-yl-1,3,5-triazin-2-yl]phenyl}carbamoyl)amino]-N-pyridin-4-ylbenzamide] |  |
| 14 | 117 | 82 | 44 | 5.9 nM |  |  |  |  |  |  |  |  |  |  |  | CC(C)c1nc(-c2ccc(NC(=O)Nc3ccc(C(=O)Nc4cccnc4)cc3)cc2)nc(N2CCOCC2)n1 [Example 310, 4-[({4-[4-(1-methylethyl)-6-morpholin-4-yl-1,3,5-triazin-2-yl]phenyl}carbamoyl)amino]-N-pyridin-3-ylbenzamide] |  |
| 40 | 366 | 125 | 126 | 12 nM |  |  |  |  |  |  |  |  |  |  |  | CC(C)c1nc(-c2ccc(NC(=O)Nc3ccc(C(=O)NC4CCC4)cc3)cc2)nc(N2CCOCC2)n1 [Example 311, N-cyclobutyl-4-[({4-[4-(1-methylethyl)-6-morpholin-4-yl-1,3,5-triazin-2-yl]phenyl}carbamoyl)amino]benzamide] |  |
| 3.3 | 73.7 | 25 | 32.3 | 12.9 nM |  |  |  |  |  |  |  |  |  |  |  | CCc1nc(-c2ccc(NC(=O)Nc3ccc(C(=O)N4CCC(c5ccccc5)CC4)cc3)cc2)nc(N2CCOCC2)n1 [Example 320, 1-[4-(4-ethyl-6-morpholin-4-yl-1,3,5-triazin-2-yl)phenyl]-3-{4-[(4-phenylpiperidin-1-yl)carbonyl]phenyl}urea] |  |
| 25 | 325 | 116 | 106 | 16.5 nM |  |  |  |  |  |  |  |  |  |  |  | CCc1nc(-c2ccc(NC(=O)Nc3ccc(C(=O)NCc4ccncc4)cc3)cc2)nc(N2CCOCC2)n1 [Example 321, 4-({[4-(4-ethyl-6-morpholin-4-yl-1,3,5-triazin-2-yl)phenyl]carbamoyl}amino)-N-(pyridin-4-ylmethyl)benzamide] |  |
| 2.4 | 86 | 30 | 13 | 6 nM |  |  |  |  |  |  |  |  |  |  |  | CC(C)Cc1nc(-c2ccc(NC(=O)Nc3ccc(C(=O)N4CCN(C)CC4)cc3)cc2)nc(N2CCOCC2)n1 [Example 322, 1-{4-[(4-methylpiperazin-1-yl)carbonyl]phenyl}-3-{4-[4-(2-methylpropyl)-6-morpholin-4-yl-1,3,5-triazin-2-yl]phenyl}urea] |  |
| 1 | 35 | 22 | 4 | 5.2 nM |  |  |  |  |  |  |  |  |  |  |  | CC(C)Cc1nc(-c2ccc(NC(=O)Nc3ccc(C(=O)N(C)CCN(C)C)cc3)cc2)nc(N2CCOCC2)n1 [Example 324, N-[2-(dimethylamino)ethyl]-N-methyl-4-[({4-[4-(2-methylpropyl)-6-morpholin-4-yl-1,3,5-triazin-2-yl]phenyl}carbamoyl)amino]benzamide] |  |
| 7 | 373 | 98 | 142 | 70 nM and 70.5 nM | 373 | 98.5 | 142 |  |  |  |  |  |  |  |  | Cc1ccc(-c2nc(-c3ccc(NC(=O)Nc4ccc(C(=O)N5CCN(C)CC5)cc4)cc3)nc(N3CCOCC3)n2)cc1 [Example 337, 1-{4-[4-(4-methylphenyl)-6-morpholin-4-yl-1,3,5-triazin-2-yl]phenyl}-3-{4-[(4-methylpiperazin-1-yl)carbonyl]phenyl}urea] |  |
| 3 | 266 | 77 | 122 | 22 nM and 19 nM | 266 |  |  | 76.5 |  |  |  |  |  |  |  | Cc1ccc(-c2nc(-c3ccc(NC(=O)Nc4ccc(C(=O)N(C)CCN(C)C)cc4)cc3)nc(N3CCOCC3)n2)cc1 [Example 338, N-[2-(dimethylamino)ethyl]-N-methyl-4-[({4-[4-(4-methylphenyl)-6-morpholin-4-yl-1,3,5-triazin-2-yl]phenyl}carbamoyl)amino]benzamide] |  |
| 10 | 237 | 48 | 150 | 12 nM and 15.5 nM | 237 |  |  |  | 10.5 | 48.5 |  |  |  |  |  | CCc1nc(-c2ccc(NC(=O)Nc3ccc(N4CCC(N(C)C)CC4)cc3)cc2)nc(N2CCOCC2)n1 [Example 341, 1-{4-[4-(dimethylamino)piperidin-1-yl]phenyl}-3-[4-(4-ethyl-6-morpholin-4-yl-1,3,5-triazin-2-yl)phenyl]urea] |  |
| 20 | 2430 | 127 | 1260 | 6.6 nM and 9.3 nM | 2430 |  | 1260 |  |  |  | 20.5 |  |  |  |  | Cc1ccc(-c2nc(-c3ccc(NC(=O)Nc4ccc(C(=O)O)cc4)cc3)nc(N3CCOCC3)n2)cc1 [Example 342, 4-[({4-[4-(4-methylphenyl)-6-morpholin-4-yl-1,3,5-triazin-2-yl]phenyl}carbamoyl)amino]benzoic acid] |  |
| 43 | 395 | 112 | 554 | 80 nM and 81.5 nM | 395 |  |  |  |  |  |  | 43.5 |  |  |  | CN(C)C1CCN(c2ccc(NC(=O)Nc3ccc(-c4nc(-c5ccccc5)nc(N5CCOCC5)n4)cc3)cc2)CC1 [Example 345, 1-{4-[4-(dimethylamino)piperidin-1-yl]phenyl}-3-[4-(4-morpholin-4-yl-6-phenyl-1,3,5-triazin-2-yl)phenyl]urea] |  |
| 1 | 8.5 | 7 |  | 0.89 nM | 8.5 |  | < 3.08 |  |  |  |  |  | 1.1 | 6 | 6.3 | CN(C)C1CCN(C(=O)c2ccc(NC(=O)Nc3ccc(-c4nc(C5CCOCC5)nc(N5CCOCC5)n4)cc3)cc2)CC1 [Example 350, 1-(4-{[4-(dimethylamino)piperidin-1-yl]carbonyl}phenyl)-3-{4-[4-morpholin-4-yl-6-(tetrahydro-2H-pyran-4-yl)-1,3,5-triazin-2-yl]phenyl}urea] |  |

| Compound | IC50 (PI3K-α) [nM] | IC50 [1] [nM] | IC50 (PI3K-γ) [nM] | IC50 [2] [nM] | IC50 (Human mTOR (FLAG-TOR)) | IC50 ([1]; PC3-mm2 cells) [nM] | IC50 (PI3K-γ; listed as 533) [nM] | IC50 ([2]; MDA-MB-361 cells) [nM] | IC50 (PI3K-γ; listed as 532) [nM] | IC50 (PI3K-α; listed as 529) [nM] | IC50 (PI3K-γ; listed as 529) [nM] | IC50 (PI3K-α; listed as 527) [nM] | IC50 (PI3K-α; listed as 535) [nM] | IC50 (PI3K-α; listed as 478) [nM] | IC50 (PI3K-γ; listed as 478) [nM] | IC50 (PI3K-γ; listed as 510) [nM] | IC50 (PI3K-γ; listed as 749) [nM] |
| --- | --- | --- | --- | --- | --- | --- | --- | --- | --- | --- | --- | --- | --- | --- | --- | --- | --- |
| O=C(Nc1ccc(-c2nc(N3CCOCC3)nc(N3C4CCC3COC4)n2)cc1)Nc1ccnc(-c2cccnc2)c1 [Example 336, 1-(2,3′-bipyridin-4-yl)-3-{4-[4-morpholin-4-yl-6-(3-oxa-8-azabicyclo[3.2.1]oct-8-yl)-1,3,5-triazin-2-yl]phenyl}urea] | 40 | 45 | 44 | 56 | 3.6 nM and 3.45 nM | 45 |  |  |  |  |  |  |  |  |  |  |  |
| O=C(Nc1ccc(-c2nc(N3CCOCC3)nc(N3C4CCC3COC4)n2)cc1)Nc1ccc(Cl)nc1 [Example 349, 1-(6-chloropyridin-3-yl)-3-{4-[4-morpholin-4-yl-6-(3-oxa-8-azabicyclo[3.2.1]oct-8-yl)-1,3,5-triazin-2-yl]phenyl}urea] | 59 | 81 | 163 | 87 | 2 nM | 81 |  |  |  |  |  |  |  |  |  |  | 164 |
